Source: publication PMC6720259, “Phlorotannins with Potential Anti-Tyrosinase and Antioxidant Activity Isolated from the Marine Seaweed Ecklonia stolonifera” (Antioxidants, 2019)
“Also recorded” adds a separate entry of the source. Where two headings read alike, the source gives them in different places.

Columns and labels:
[1] = ONOO− radical scavenging assay; details: mean ± SD of triplicates
Protocol: ONOO^− scavenging activity was assessed by a modified version of Kooy’s method, which monitors the production of fluorescent rhodamine 123 from non-fluorescent DHR 123 in the presence of ONOO^−. L-Penicillamine was used as a positive control.

mushroom tyrosinase [2] = biological target: T1, mushroom tyrosinase (Agaricus bisporus, UniProt C7FF04); test: In vitro mushroom tyrosinase inhibitory assay (L-tyrosine and L-DOPA as substrates); assay type: biochemical; details: for IC50: mean ± SD of triplicates
T1 construct: purchased Sigma Aldrich
T1 sequence (C7FF04 1-392 limits assumed): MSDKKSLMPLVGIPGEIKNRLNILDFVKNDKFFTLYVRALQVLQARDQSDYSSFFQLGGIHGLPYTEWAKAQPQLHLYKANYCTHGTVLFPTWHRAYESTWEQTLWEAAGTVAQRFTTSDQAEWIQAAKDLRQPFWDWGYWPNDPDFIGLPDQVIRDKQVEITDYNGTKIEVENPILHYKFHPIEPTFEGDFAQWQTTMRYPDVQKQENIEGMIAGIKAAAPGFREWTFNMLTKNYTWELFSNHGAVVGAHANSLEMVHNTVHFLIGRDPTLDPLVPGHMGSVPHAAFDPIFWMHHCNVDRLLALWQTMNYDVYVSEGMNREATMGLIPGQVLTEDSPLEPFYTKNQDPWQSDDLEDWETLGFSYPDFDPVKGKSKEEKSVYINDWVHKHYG
Protocol: Mushroom tyrosinase inhibitory activity was assessed by the method described by Kang et al. 2004 [17] with slight modifications.

B16F10 melanoma cells [3] = test: Melanin content assay in α-MSH-stimulated cells; assay type: cell-based, mouse; details: for Melanin content of α-MSH-stimulated B16F10 cells: 6.25-100 μM, α-MSH 3 μM, 24 h; for Inhibition of melanin content compared with arbutin (500 μM): compound at 100 μM, α-MSH-stimulated B16F10 cells
Protocol: The intracellular melanin content was determined according to a procedure described previously with minor modifications. Briefly, B16F10 cells were seeded in a 24-well plate at 1 × 10^4 cells/well and incubated for 24 h in DMEM containing 10% FBS. Cells were pretreated with various concentrations of 974-A, phlorofucofuroeckol-A, and eckol for 1 h, and then were stimulated with α-MSH (3 μM) for 24 h. The cells were washed with PBS, and were dissolved in 1 N NaOH containing 10% DMSO by being boiled at 80 °C for 30 min. The cell lysates were centrifuged at 14,000 rpm for 10 min, and the absorbance of the supernatant was measured at 405 nm on a microplate reader (Molecular Devices). The absorbance was normalized to the total protein content for the determination of the melanin content.

[4] = DPPH radical scavenging activity; details: mean ± SD of triplicates
Protocol: DPPH radical scavenging activity was evaluated by the method described by Blois, 1958 [19] with slight modifications. L-Ascorbic acid was used as a positive control.

B16F10 melanoma cells [5] = test: Cell viability (MTT) assay; assay type: cell-based, mouse; details: 6.25, 12.5, 25, 50, and 100 μM, with or without α-MSH co-treatment
Protocol: B16F10 mouse melanoma cells were obtained from the American Type Culture Collection (Manassas, VA, USA). Cells were cultured at 37 °C in high-glucose DMEM supplemented with 10% FBS, 100 U/mL penicillin, and 100 μg/mL streptomycin in a humidified atmosphere containing 5% CO2. The MTT assay was used to determine the cytotoxicity of 974-A, phlorofucofuroeckol-A, and eckol according to previously described methods with slight modifications. Briefly, B16F10 cells were seeded in a 96-well plate at 1 × 10^4 cells/well and incubated for 24 h in DMEM supplemented with 10% FBS. […] After 24-h incubation of the samples, the FBS-free DMEM was suctioned, and the cells were treated with an MTT solution (100 μL at 0.5 mg/mL in phosphate-buffered saline (PBS)) and incubated for 2 h. The proportion of surviving cells was determined after the medium was replaced with 100 µL of DMSO. […] The absorbance was measured at 570 nm on a microplate reader (Molecular Devices, Sunnyvale, CA, USA).

mushroom tyrosinase [6] = biological target: T1, mushroom tyrosinase; test: Kinetic analysis of mushroom tyrosinase inhibition (Lineweaver-Burk and Dixon plots); assay type: biochemical; details: for Ki: Dixon plot; for Type of inhibition, L-DOPA / Type of inhibition, L-Tyrosine: Lineweaver-Burk plot
Protocol: The inhibition mode and inhibition constant (Ki) for mushroom tyrosinase inhibition were calculated from the Lineweaver-Burk and Dixon plots. Kinetic parameters were obtained for various concentrations of the substrates (L-tyrosine and L-DOPA) and inhibitors (974-A, phlorofucofuroeckol-A and eckol). Graphs were generated with Sigma plot 12.0 (SPSS Inc., Chicago, IL, USA).

[7] = ABTS•+ radical scavenging assay; details: mean ± SD of triplicates
Description: This assay assesses the ability of different substances to scavenge ABTS radical cations (ABTS^•+) in comparison with the positive control, Trolox. The method was developed by Re et al. 1999 [21].

[8] = test system: tyrosinase, TRP-1, and TRP-2 expression in B16F10 cells; test: Western blot analysis of melanogenic enzymes; assay type: cell-based, mouse; details: 12.5–50 μM, α-MSH-stimulated B16F10 cells
Protocol: B16F10 cells were stimulated with α-MSH in the presence or absence of compounds for the indicated times. The cells were then washed with ice-cold PBS and lysed with RIPA buffer on ice for 30 min. After centrifugation of the samples at 12,000× g for 20 min, the protein concentrations of the supernatants were determined. Aliquots of protein were resolved by sodium dodecyl sulfate-polyacrylamide gel electrophoresis (SDS-PAGE) and transferred onto a nitrocellulose membrane. The membrane was washed with Tris-buffered saline (TBS; 10 mM Tris-HCl, 150 mM NaCl, pH 7.5) supplemented with 0.05% Tween 20 (TBST), blocked with 5% skim milk (w/v) in TBST for 2 h and incubated for approximately 20 h with the primary antibodies. The immunoblots were then incubated with the appropriate secondary antibody coupled to horseradish peroxidase for 2 h, and protein levels were detected with an ECL detection kit. Densitometric analysis of data from at least three independent experiments was performed with a cooled CCD camera system and CS analyzer version 3.00 software. Fold-increases in protein expression were calculated versus normal controls. The experiments were repeated three times for each experimental condition.

[9] = test system: cellular tyrosinase of B16F10 cells; test: Cellular TYR activity assay (L-DOPA oxidase activity); assay type: cell-based, mouse; details: for Cellular tyrosinase activity of α-MSH-stimulated B16F10 cells: 6.25-100 μM, α-MSH 3 μM, 24 h; for Inhibition of cellular tyrosinase compared with arbutin (500 μM): compound at 100 μM, α-MSH-stimulated B16F10 cells
Protocol: Cellular TYR activity was measured as L-DOPA oxidase activity by a previously described method with some modifications. Cells were seeded at 1 × 10^4 cells/well in a 24-well plate, incubated for 24 h and then stimulated with α-MSH (3 μM) in the presence or absence of 974-A, phlorofucofuroeckol-A, or eckol for 24 h. After treatment, the cells were washed with cold PBS and lysed with RIPA buffer. The cell lysates were centrifuged at 12,000 rpm for 10 min, and the supernatant was used as the cellular TYR solution. The reaction mixture, which contained 80 μL of the cell lysate and 20 μL of L-DOPA (20 mM), was incubated at 37 °C for 45 min. After the incubation, dopachrome formation was measured spectrophotometrically every 10 min for 45 min at 450 nm on a microplate reader (Molecular Devices). TYR activity was calculated as a percentage of the control.

IBMX-treated cells = test system: IBMX-treated cells; parameters: method as in PMID 19361156; details: cited from earlier work
[10] = test system: cellular melanin and tyrosinase; parameters: method as in earlier work; details: previous study; cited from earlier work
melanin synthesis = test system: melanin synthesis; parameters: method as in PMID 19490939; details: at 250 μM; cited from earlier work
tyrosinase = test system: tyrosinase; parameters: method as in PMID 19490939; details: at 50 μM; cited from earlier work
[11] = IC50 Value, Mushroom Tyrosinase Inhibition, L-DOPA, substrate L-DOPA
[12] = IC50 Value, Mushroom Tyrosinase Inhibition, L-Tyrosine, substrate L-tyrosine
[13] = substrate L-DOPA, read-out: Ki Value, L-DOPA
[14] = substrate L-tyrosine, read-out: Ki Value, L-Tyrosine
[15] = substrate L-DOPA, read-out: IC50 Value, Mushroom Tyrosinase Inhibition, L-DOPA
[16] = substrate L-tyrosine, read-out: IC50 Value, Mushroom Tyrosinase Inhibition, L-Tyrosine

Row | IC50 [1] [µM] | IC50 [4] [µM] | IC50 [7] [µM] | Molecule | Melanin content of α-MSH-stimulated B16F10 cells (B16F10 melanoma cells [3]) | Inhibition of melanin content compared with arbutin (500 μM) (B16F10 melanoma cells [3]) | Cytotoxicity towards B16F10 melanoma cells (MTT) (B16F10 melanoma cells [5]) | Type of inhibition, L-DOPA (mushroom tyrosinase [6]; substrate L-DOPA) | Type of inhibition, L-Tyrosine (mushroom tyrosinase [6]; substrate L-tyrosine) | Expression of tyrosinase, TRP-1, and TRP-2 (Western blot) [8] | Cellular tyrosinase activity of α-MSH-stimulated B16F10 cells [9] | Inhibition of cellular tyrosinase compared with arbutin (500 μM) [9] | also measured
1 |  |  |  | 7-phloreckol [Compound 7-phloreckol] |  |  |  |  |  |  |  |  | Melanin content of IBMX-treated cells (IBMX-treated cells): significantly and dose-dependently reduced the melanin content
2 | 1.07 ± 0.21 |  |  | CC(C)(S)C(N)C(=O)O (stereo in doubt) [Penicillamine, L-penicillamine, reference compound] |  |  |  |  |  |  |  |  | 
3 |  | 0.69 ± 0.04 |  | O=C1O[C@H]([C@@H](O)CO)C(O)=C1O [Ascorbic acid, L-ascorbic acid, reference compound] |  |  |  |  |  |  |  |  | 
4 |  |  | 18.4 ± 0.7 | Cc1c(C)c2c(c(C)c1O)CCC(C)(C(=O)O)O2 (centres unmarked) [Trolox, reference compound] |  |  |  |  |  |  |  |  | 
5 |  |  |  | CC1=C(/C=C/C(C)=C/C=C/C(C)=C/CO)C(C)(C)CCC1 [retinol] |  |  |  |  |  |  |  |  | Inhibition of melanin synthesis (melanin synthesis): 75.3%
6 | 0.26 ± 0.06 | 0.92 ± 0.11 | 6.29 ± 0.34 | Oc1cc(O)cc(Oc2c(O)cc(O)c3c2oc2cc(O)c4c(c23)Oc2c(O)cc(O)c(Oc3cc(O)cc(O)c3-c3c(O)cc(O)cc3Oc3c(O)cc(O)cc3Oc3c(O)cc(O)cc3O)c2O4)c1 [Compound 974-A, 974-A] | reduced the cellular melanin content | comparable to arbutin | none of them exhibited significant cytotoxicity up to 100 μM | Competitive | Competitive | downregulated the expression of melanogenesis enzymes; also recorded: dose-dependently attenuated the expression of tyrosinase, TRP-1, and TRP-2 | reduced the cellular melanin content and tyrosinase activity | as active | IC50 (mushroom tyrosinase [2]; [15]): 3.56 ± 0.22 µM; IC50 (mushroom tyrosinase [2]; [16]): 1.57 ± 0.08 µM; Ki (mushroom tyrosinase [6]; [13]): 3.33 µM; Ki (mushroom tyrosinase [6]; [14]): 0.69 µM
7 |  |  |  | Oc1cc(O)cc(Oc2c(O)cc(O)c3c2Oc2c(O)cc(Oc4c(O)cc(Oc5c(O)cc(O)c6c5Oc5c(O)cc(O)cc5O6)cc4O)cc2O3)c1 [Dieckol] |  |  |  |  |  |  |  |  | Tyrosinase inhibitory activity (tyrosinase): 88.9%
8 | 1.72 ± 0.59 | > 100 | 31.5 ± 1.68 | Oc1cc(O)cc(O)c1 [Phloroglucinol, phloroglucinol] |  |  |  |  |  |  |  |  | Inhibition of mushroom tyrosinase, either substrate (in words) (mushroom tyrosinase [2]; L-tyrosine and L-DOPA): No significant inhibition; IC50 (mushroom tyrosinase [2]; [15]): > 400 µM; IC50 (mushroom tyrosinase [2]; [16]): 251 ± 5.52 µM

Row | Molecule | IC50 [1] [µM] | IC50 [4] [µM] | IC50 [7] [µM] | Melanin content of α-MSH-stimulated B16F10 cells (B16F10 melanoma cells [3]) | Inhibition of melanin content compared with arbutin (500 μM) (B16F10 melanoma cells [3]) | Cytotoxicity towards B16F10 melanoma cells (MTT) (B16F10 melanoma cells [5]) | Type of inhibition, L-DOPA (mushroom tyrosinase [6]; substrate L-DOPA) | Type of inhibition, L-Tyrosine (mushroom tyrosinase [6]; substrate L-tyrosine) | Expression of tyrosinase, TRP-1, and TRP-2 (Western blot) [8] | Cellular tyrosinase activity of α-MSH-stimulated B16F10 cells [9] | Inhibition of cellular tyrosinase compared with arbutin (500 μM) [9] | also measured
9 | Oc1cc(O)cc(Oc2c(O)cc(O)c3c2Oc2c(O)cc4oc5c(Oc6cc(O)cc(O)c6)c(O)cc(O)c5c4c2O3)c1 [Phlorofucofuroeckol-A, phlorofucofuroeckol-A] | 0.85 ± 0.1 | 1.92 ± 0.09 | 12.9 ± 0.95 | reduced the cellular melanin content | comparable to arbutin | none of them exhibited significant cytotoxicity up to 100 μM | Non-competitive | Non-competitive | downregulated the expression of melanogenesis enzymes; also recorded: dose-dependently attenuated the expression of TYR, TRP-1, and TRP-2 | reduced the cellular melanin content and tyrosinase activity | more potent | IC50 (mushroom tyrosinase [2]; [11]): 8.14 ± 0.29 µM; IC50 (mushroom tyrosinase [2]; [12]): 3.42 ± 0.01 µM; Ki (mushroom tyrosinase [6]; Ki Value, L-DOPA, substrate L-DOPA): 7.14 µM; Ki (mushroom tyrosinase [6]; Ki Value, L-Tyrosine, substrate L-tyrosine): 2.7 µM; Type of inhibition, L-DOPA (mushroom tyrosinase [6]; substrate L-DOPA, listed as phlorofucofuroeckol-A): non-competitive; Type of inhibition, L-Tyrosine (mushroom tyrosinase [6]; substrate L-tyrosine, listed as phlorofucofuroeckol-A): non-competitive
10 | Oc1cc(O)cc(Oc2c(O)cc(O)c3c2Oc2c(O)cc(O)cc2O3)c1 [Eckol, eckol] | 0.73 ± 0.07 | 1.63 ± 0.65 | 5.01 ± 0.19 | reduced the cellular melanin content | more effective than arbutin | none of them exhibited significant cytotoxicity up to 100 μM | Non-competitive | Non-competitive | downregulated the expression of melanogenesis enzymes; also recorded: dose-dependently attenuated the expression of TYR, TRP-1, and TRP-2 | reduced the cellular melanin content and tyrosinase activity | as active | IC50 (mushroom tyrosinase [2]; [11]): 29.6 ± 0.48 µM; IC50 (mushroom tyrosinase [2]; [12]): 9.12 ± 0.36 µM; Melanin levels and tyrosinase at a cellular level [10]: dose-dependently reduce melanin levels and inhibit tyrosinase at a cellular level; Ki (mushroom tyrosinase [6]; [13]): 28.5 µM; Type of inhibition, L-DOPA (mushroom tyrosinase [6]; substrate L-DOPA, listed as eckol): non-competitive; Ki (mushroom tyrosinase [6]; [14]): 8.6 µM; Type of inhibition, L-Tyrosine (mushroom tyrosinase [6]; substrate L-tyrosine, listed as eckol): non-competitive
